Solubility data for one compound are collected here from patent publication US9566290B2, “Boron-containing small molecules” (Anacor Pharmaceuticals, Inc., priority 2005, dated 2017).

The solubility is how much of the substance goes into solution per volume.

Where only a bound is given, the exact number is not on record here.

The data set can be described thus: Water solubility (table of physicochemical properties).

`OB1OCc2cc(F)ccc21` [C10, 5-fluorobenzo[c][1,2]oxaborol-1(3H)-ol] showed a solubility of over 100 µg/mL.
